The values below come from patent US8716279B2, “Pharmaceutical compositions of clonazepam and method of use thereof” (Jazz Pharmaceuticals, Inc., priority 2006, dated 2014).

A short description of data set [1]: Drug recovery, degradation and binding to nasal sheep mucosa. In kind it is in vitro ADME. Here is the method: (i) Drug recovery, degradation and binding to nasal sheep mucosa: The effect of drug recovery, degradation and binding to sheep nasal mucosa was determined. Briefly, a known surface area (approx. 1 cm^2) of sheep nasal mucosa was added into a glass vial containing a known concentration (10 μg/mL) of each drug prepared in the receiver fluid (10% ethanol in pH 6 buffer). The content of the vial was allowed to equilibrate at 37° C. over a period of 48 h. At 24 h intervals, a sample was removed and assayed via HPLC. The percentage of drug recovered was calculated using Equation 4: % drug recovered=(drug concentration at t=Y/drug concentration at t=Z)×100 (Equation 4)
where, Y=specific time point at 37° C. (in the presence of nasal sheep mucosa); and Z=specific time point at 37° C. (in the absence of nasal sheep mucosa).
In addition to the stability against heat degradation, the effect of drug binding or degradation in the presence of nasal sheep mucosa was also determined (Table 6).

Data set [2] can be described thus: Solubility of clonazepam in glycol ethers at 25° C. Here is the method: 10 mg of clonazepam was weighed into glass vials used in the Pfeiffer mono-dose spray system (Pfeiffer of America, Princeton, N.J.). Four samples of each of four solvents were prepared as follows. 130-μL of each solvent was pipetted into the vial, which was then stoppered with a black chlorobutyl rubber stopper.
The vials were removed from the chamber, placed inside polyethylene centrifuge vials, and centrifuged for 2 minutes at 5000 rpm. 10 μL of liquid was then sampled from each vial, accurately weighed, and diluted with 1 mL of acetonitrile. The drug concentration was analyzed by UV using an Agilent HPLC system with no column, 10 μL injection volume, acetonitrile mobile phase, 0.3 mL/min and UV detection at 350 nm.

Data set [3] can be described thus: qEEG mapping. In kind it is in vivo. Conditions: human. Here is the method:
E. Electroencephalography (EEG) Methods: Drug and placebo are administered, for example, at a five-minute intravenous (i.v.) infusion. During 15 minutes following the beginning of the administration EEG is registered. The EEG is registered again at 30, 60, 90, 120, and 180 minutes. Subjects are typically in a quiet laboratory (soundproof and electrically shielded room). During acquisition of EEG measurements subjects recline in an armchair. Usually twenty-eight EEG leads (issued, for example, from a 10-20 system; Jasper, H. H., et al., “Studies of clinical and electrical responses to deep temporal stimulation in men with some considerations of functional anatomy,” Res Publ Assoc Res Nerv Ment Dis. 36:316-34 (1958); Japser, H. H., “Progress and problems in brain research,” J Mt Sinai Hosp N Y. 25(3):244-53 (1958)) are used for recording. An ear linked reference, as well as four artifact channels (detection of eye movement, muscle activity, and other potentials for artifacts) may be used. Silver-plated disc electrodes are attached to subject's scalp, for example, with quick drying collondion. Impedance (for example, of 2000-5000 ohms) is checked before each recording session. A calibration signal is used, before each subject is tested, in order to adjust all the recorded leads thus allowing the construction of EEG or event-related-potentials (ERP) maps. EEGs are taken under resting recording conditions (i.e., subjects are asked to relax with their eyes closed). An example of data analysis used is the method of Dago, et al. (Dago, K T, et al., “Statistical Decision Tree: a tool for studying pharmaco-EEG effects of CNS-active drugs,” Neuropsychobiology, 29(2):91-6 (1994)) which involves a statistical comparison of data obtained during active treatment versus placebo treatment. Typically, topographic mapping of mean EEG parameters and statistical evaluation of treatment effects is carried out in a selected number of healthy volunteers.
EEG profiles are determined for patients dosed intranasally with clonazepam compositions of the present invention. […]

Data set [4] in a line: Solubility of clonazepam in binary mixtures of matrices. Conditions: binary mixture with glycofurol, inferred from FIG. 2.
Procedure: Further, the solubility of clonazepam in binary mixtures of Transcutol® (TC), triacetin (TA), glycofurol (GF) and propylene glycol (PG) was evaluated. Solubility limits of clonazepam were determined for the following formulations:
Excess drug (50 mg) was capped with about 500 μL of the solvent matrix in a 1.5 mL microfuge tube and the solution was mixed on a vortex shaker for several minutes. Thereafter, the solution was placed in an ultrasonic bath at 25° C. for 45 minutes. The temperature was regulated with a thermometer and controlled by adding ice into the bath. After 15 minutes of standing, the solutions were centrifuged at 3,000×g for 30 minutes. Solutions were then stored for 16 hours at 25° C. in an ICH cabinet and protected from light.
Data set [5] can be described thus: In vitro permeation across sheep nasal mucosa, Franz cells. Conditions: saturated solution, Franz cell, 7 h, FIG. 1.
Procedure: Freshly excised sheep nasal mucosa was used and prepared following a standard protocol. The excised sheep nasal mucosa was cleaned by rinsing with de-ionized water and either used fresh or placed flat over a filter paper and stored frozen until used.
(ii) Dosing and Sample Collection—Franz cell studies: Individually calibrated Franz cells with an average surface area and volume of approximately 0.6 cm^2 and 2 mL, respectively, were employed to determine the permeation characteristics of drug. The nasal sheep mucosa was mounted between the two halves of the Franz cell with the mucosal side facing the donor compartment. The receptor compartment was filled with receiver fluid, stirred constantly with a PTFE-coated magnetic follower driven by a submersible magnetic stirrer bed and maintained at 37° C. in a water bath. Approximately 1 mL (infinite dose) of saturated drug solution was placed into the donor compartment and covered with […] ® (Pechiney Plastic Packaging, Inc., Chicago, Ill.) throughout the study. Following the application of the drug solution, the receiver fluid (200 μL) was removed from the receptor compartment via the sampling arm after sampling times (t=1, 2, 3, 4, 5, 6 and 7 h) and analyzed via HPLC. Each sample removed was replaced by an equal volume of fresh pre-warmed (37° C.) receiver fluid. […]

Converted amounts (≈) assume the structure as drawn. Some results are limits rather than exact numbers.

Usually Solubility stands for how much of the substance goes into solution per volume. Low readings indicate a poorly soluble substance, high ones a readily soluble substance. As to `O=C1CN=C(c2ccccc2Cl)c2cc([N+](=O)[O-])ccc2N1` [Clonazepam, 5-(2-chlorophenyl)-1,3-dihydro-7-nitro-2H-1,4-benzodiazepin-2-one], in data set [1] (37° C.), the “degree of binding or degradation in the presence of nasal sheep mucosa” value is on record as less than 10%. Also, the “drug recovered in the presence of nasal sheep mucosa” value in data set [1] (37° C. over 48 h) is reported as “greater than 95%”. For the same compound, the “Solubilities (mg/mL) of Clonazepam in Solvent/Water Solutions” value in data set [2] (1,2-dimethyxoethane, 100% solvent / 0% water, 25° C. (neat solvent value from Example 11, included for reference)) came to 39.3 mg/mL. Also, the Solubility in data set [2] (in 1,2-dimethyxoethane, 25 C.) amounted to 39.3 mg/mL (≈ 124 mM). In data set [3] (all three routes), the “EEG changes from baseline” value is “increased delta and beta activity and decreased alpha and theta activity”. The “beta-1 relative power, time course of effects (post-hoc analysis)” value in data set [3] (intranasal administration) is “magnitude of effect similar to that from oral administration”. Further, the “time after dosing at which the EEG pattern was noted” value in data set [3] (oral administration) is given as “approximately 2 hours”. For the same compound, the “solubility in the 50:50 mixture” value in data set [4] is listed as “about 36.4 mg/mL”. The “permeation across sheep nasal mucosa” value in data set [5] is listed as “at steady state”.
